pIC50: −log10 of the molar value.

Holding throughout (assay type): cell-based
Experiment [1] has as its system Stat5 phosphorylation in NK-92 cells. Put plainly: Western blotting assay for Stat5. The conditions noted are these: NK92, 1 hour, IL-2 stimulation, read-out: Stat5 inhibition. On the procedure:
(§1) All cell lines were obtained from the American Type Culture Collection and were maintained at 37° C. with 5% CO2. Ramos cell line was maintained in media supplemented with 10% fetal bovine serum, penicillin (100 units/mL) and streptomycin (100 μg/mL). NK-92 cell line was maintained in media supplemented with 10% fetal bovine serum and 10% horse serum, penicillin (100 units/mL) and streptomycin (100 μg/mL), IL-2 10 ng/mL. Goat F(ab′)2 Anti-Human IgM-UNLB was obtained from SouthernBiotech. IL-2 was obtained from Peprotech.
NK-92 cells were treated with compounds at the dosed indicated for 1 hour in incubator, followed by the IL-2 stimulation for 15 minutes. Cells were then collected and lysed to prepare the cellular extraction. Western blots were performed on cell lysate using Phospho-Jak3, Jak3, Phospho-Stat5, Stat5 antibodies (Cell Signaling Technology). The intensity of blotting band was acquired using Image Lab (Bio-Rad) software, and the IC50 of target was generated with GraphPad Prism.
On the technique in general: A western blot detects proteins with antibodies after separation by electrophoresis.

Experiment [2] concerns the target T1, Btk (Tyr223) phosphorylation in Ramos cells (Homo sapiens, UniProt Q06187).
T1 construct: endogenous in cells; host or cells: Ramos cells (ATCC)
Nature of the experiment: Btk Tyr223 phosphorylation inhibition, western blotting assay (Example 72). As to conditions: Btk Tyr223 phosphorylation, 45 min, 12 μg/mL IgM, read-out: BTK Inhibition. The method, then: Ramos cell line was obtained from the American Type Culture Collection and was maintained at 37° C. with 5% CO2, in media supplemented with 10% fetal bovine serum, penicillin (100 units/mL) and streptomycin (100 μg/mL), Goat F(ab′)2 Anti-Human IgM-UNLB was obtained from SouthernBiotech.
Ramos cells were treated with compounds at indicated doses for 45 min at room temperature, followed by stimulation of 12 μg/mL of IgM for 30 min, and then lysed. Western blots were performed on the cell lysate using Phospho-Btk (Tyr223), Phospho-Btk (Tyr551), Btk, Phospho-PLCγ2 (Tyr1217), PLCγ2, Phospho-p44/42 MAPK (Erk1/2) (Thr202/Tyr204) and p44/42 MAPK (Erk1/2) antibodies (Cell Signaling Technology). The density of blotting band was acquired using ImageJ software, and the IC50 of Btk (Tyr223) phosphorylation was fitted using a non-linear regression model by GraphPad Prism version 4.0.

Experiment [3] deals with T1, Btk (Tyr223) phosphorylation in Ramos cells. Put plainly: Western blotting assay for Btk (Example 73). The conditions noted are these: 45 min, 6 μg/mL anti-IgM, read-out: Btk Inhibition. The method, then: as §1
Ramos cells were treated with compounds at indicated doses for 45 min at room temperature, followed by stimulation of 6 μg/mL of anti-IgM for 30 min, and then lysed. Western blots were performed on the cell lysate using Phospho-Btk (Tyr223), Phospho-Btk (Tyr551), Btk, Phospho-PLCγ2 (Tyr1217), PLCγ2, Phospho-p44/42 MAPK (Erk1/2) (Thr202/Tyr204) and p44/42 MAPK (Erk1/2) antibodies (Cell Signaling Technology). The density of blotting band was acquired using ImageJ software, and the IC50 of Btk (Tyr223) phosphorylation was fitted using a non-linear regression model by GraphPad Prism.

The target in experiment [4] is T2, free Btk protein from Ramos cells (Homo sapiens, UniProt Q06187).
T2 construct: endogenous in cells; host or cells: Ramos cells (ATCC)
T2 sequence (Q06187 whole entry): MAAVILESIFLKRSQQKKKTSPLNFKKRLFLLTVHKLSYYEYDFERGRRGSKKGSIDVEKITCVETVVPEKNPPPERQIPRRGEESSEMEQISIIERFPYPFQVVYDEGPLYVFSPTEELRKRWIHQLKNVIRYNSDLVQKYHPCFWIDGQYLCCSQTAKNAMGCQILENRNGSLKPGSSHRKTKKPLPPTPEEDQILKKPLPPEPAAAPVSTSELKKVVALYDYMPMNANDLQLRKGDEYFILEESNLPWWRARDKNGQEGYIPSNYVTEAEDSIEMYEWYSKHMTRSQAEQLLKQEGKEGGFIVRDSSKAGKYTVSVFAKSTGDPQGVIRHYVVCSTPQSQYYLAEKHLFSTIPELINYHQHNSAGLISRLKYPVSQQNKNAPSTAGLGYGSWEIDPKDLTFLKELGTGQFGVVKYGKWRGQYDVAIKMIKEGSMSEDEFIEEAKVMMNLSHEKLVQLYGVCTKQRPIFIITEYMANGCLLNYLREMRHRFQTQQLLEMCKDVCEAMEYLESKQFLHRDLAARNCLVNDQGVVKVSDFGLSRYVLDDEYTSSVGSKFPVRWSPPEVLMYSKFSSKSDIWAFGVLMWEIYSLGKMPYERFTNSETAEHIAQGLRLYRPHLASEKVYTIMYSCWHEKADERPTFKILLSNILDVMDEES
Put plainly: Btk target site occupancy ELISA assay. The conditions noted are these: 1 h, ELISA, read-out: Btk Occupancy Assay (IC50). On the procedure: (§2) Ramos cells were treated with Compound I-1 at indicated concentrations for 1 h, followed by stimulation with 6 μg/mL of IgM for 30 mm, and then lysed. Lysates were incubated with Compound I-21 (biotin labeled) at a final concentration of 1 μM in a PBS, 0.05% Tween-20, 1% BSA solution while shaking for 1 h at room temperature. Samples were transferred to a streptavidin-coated 96-well ELISA plate and mixed while shaking for 1 h at room temperature. The Btk antibody (BD 611116, 1:1000 dilution in PBS+0.05% Tween-20+0.5% BSA) was then applied and incubated for 1 h at room temperature. After wash, goat anti-mouse-HRP (Pierce 31432, 1:1000 dilution in PBS+0.05% Tween-20+0.5% BSA) was added and incubated for 1 h at room temperature. The ELISA was developed with addition of tetramethyl benzidine (TMB) followed by Stop Solution and read at OD 450 nm.
as §2, with “Compounds” for “Compound I-1”, “anti-IgM” for “IgM”, “diluted” for “dilution”, “tetramethylbenzidine” for “tetramethyl benzidine”

T1 sequence (Q06187 whole entry): as above

Turning to `C=CC(=O)Nc1cccc(Nc2nc(Nc3ccc(N4CCN(CCF)CC4)cc3)ncc2OC)c1` [Compound I-5], the pIC50 was 6.40 to 6.70 in experiment [1], greater than 8.00 in experiment [2] and no less than 8.00 in experiment [3].

Consider `C=CC(=O)Nc1cccc(Oc2nc(Nc3ccc(N[C@H]4CCN(CCF)C4)cc3)ncc2OC)c1` [Compound I-13, (S)—N-(3-(2-(4-(1-(2-fluoroethyl)pyrrolidin-3-ylamino)phenylamino)-5-methoxypyrimidin-4-yloxy)phenyl)acrylamide], for which the pIC50 in experiment [1] is no more than 6.40; in experiment [4] it was no less than 8.00; in experiment [2], greater than 8.00; in experiment [3], no less than 8.00.

Take `C=CC(=O)Nc1cccc(Oc2nc(Nc3ccc(N4CCN(CCF)CC4)cc3)ncc2F)c1` [Compound I-12]: the pIC50 in experiment [1] was 6.40 to 6.70; in experiment [2], 7.00 to 8.00; in experiment [3] it was 7.00 to 8.00.

For `C=CC(=O)Nc1cccc(Nc2nc(Nc3ccc(N[C@@H]4CCN(CCF)C4)cc3)ncc2OC)c1` [Compound I-17, (R)—N-(3-(2-(4-(1-(2-fluoroethyl)pyrrolidin-3-ylamino)phenylamino)-5-methoxypyrimidin-4-ylamino)phenyl)acrylamide], the pIC50 in experiment [1] was no more than 6.40; in experiment [2], greater than 8.00; in experiment [3], no less than 8.00.

As to `C=CC(=O)Nc1cccc(Nc2nc(Nc3ccc(N[C@@H]4CCN(CCF)C4)cc3)ncc2F)c1` [Compound I-18], the values for the pIC50 in experiment [1], in experiment [2] and in experiment [3] were 6.40 to 6.70, greater than 8.00 and no less than 8.00, respectively.

As for `C=CC(=O)Nc1cccc(Oc2nc(Nc3ccc(N4CCN(CCF)CC4)cc3)ncc2OC)c1` [Compound I-9], the pIC50 was 6.40 to 6.70 in experiment [1], greater than 8.00 in experiment [2] and no less than 8.00 in experiment [3].

As to `C=CC(=O)Nc1cccc(Oc2nc(Nc3ccc(N4CCN(CCF)CC4)c(F)c3)ncc2OC)c1` [Compound I-3, N-(3-(2-(3-fluoro-4-(4-(2-fluoroethyl)piperazin-1-yl)phenylamino)-5-methoxypyrimidin-4-yloxy)phenyl)acrylamide], the pIC50 in experiment [1] was 6.40 to 6.70; in experiment [2] it was greater than 8.00; in experiment [3] it was no less than 8.00.

As for `C=CC(=O)Nc1cccc(Nc2nc(Nc3ccc(N[C@H]4CCN(CCF)C4)cc3)ncc2OC)c1` [Compound I-16, (S)—N-(3-(2-(4-(1-(2-fluoroethyl)pyrrolidin-3-ylamino)phenylamino)-5-methoxypyrimidin-4-ylamino)phenyl)acrylamide], the results for the pIC50 in experiment [1], in experiment [2] and in experiment [3] were no more than 6.40, greater than 8.00 and no less than 8.00, respectively.

Take `C=CC(=O)Nc1cccc(Nc2nc(Nc3ccc(N4CCN(CCF)CC4)c(F)c3)ncc2F)c1` [Compound I-4, N-(3-((5-fluoro-2-((3-fluoro-4-(4-(2-fluoroethyl)piperazin-1yl)phenyl)amino)pyrimidin-4-yl)amino)phenyl)acrylamide]: the pIC50 in experiment [1] was 6.40 to 6.70; in experiment [2] it was greater than 8.00; in experiment [3], no less than 8.00.

As to `C=CC(=O)Nc1cccc(Nc2nc(Nc3ccc(N[C@H]4CCN(CCF)C4)cc3)ncc2F)c1` [Compound I-15], the pIC50 is no more than 6.40 in experiment [1], greater than 8.00 in experiment [2] and no less than 8.00 in experiment [3].

On to `C=CC(=O)Nc1cccc(Oc2nc(Nc3ccc(N[C@H]4CCN(CCF)C4)cc3)ncc2F)c1` [Compound I-20, (S)—N-(3-(5-fluoro-2-(4-(1-(2-fluoroethyl)pyrrolidin-3-ylamino)phenylamino)pyrimidin-4-yloxy)phenyl)acrylamide], for which the pIC50 in experiment [4] and in experiment [3] was no less than 8.00 throughout.

As to `C=CC(=O)Nc1cccc(Oc2nc(Nc3ccc(N(C)[C@H]4CCN(C(C)=O)C4)cc3)ncc2OC)c1` [Compound I-58a, (S)—N-(3-(2-(4-((1-acetylpyrrolidin-3-yl)(methyl)amino)phenylamino)-5-methoxypyrimidin-4-yloxy)phenyl)acrylamide], the pIC50 in experiment [1] is no more than 6.40; in experiment [4], no less than 8.00; in experiment [3], no less than 8.00.

Consider `C=CC(=O)Nc1ccccc1Nc1nc(Nc2ccc(N3CCN(CCF)CC3)cc2)ncc1F` [Compound I-6, N-(2-(5-fluoro-2-(4-(4-(2-fluoroethyl)piperazin-1-yl)phenylamino)pyrimidin-4-ylamino)phenyl)acrylamide], for which the pIC50 is 6.40 to 6.70 in experiment [1], greater than 8.00 in experiment [2] and no less than 8.00 in experiment [3].

With `C=CC(=O)Nc1cccc(Oc2nc(Nc3ccc(OCCOC)cc3)nc3[nH]ccc23)c1` [Compound I-10, N-(3-(2-(4-(2-methoxyethoxy)phenylamino)-7H-pyrrolo[2,3-d]pyrimidin-4-yloxy)phenyl)acrylamide], the pIC50 in experiment [1] is 6.40 to 6.70; in experiment [4] it was 7.00 to 8.00; in experiment [2], greater than 8.00; in experiment [3] it was no less than 8.00.

With `C=CC(=O)Nc1cccc(Nc2nc(Nc3ccc(N4CCN(CCF)CC4)c(F)c3)ncc2OC)c1` [Compound I-7], the pIC50 in experiment [1] was no more than 6.40; in experiment [2] it was 7.00 to 8.00; in experiment [3], 7.00 to 8.00.

On to `C=CC(=O)Nc1cccc(Oc2nc(Nc3ccc(N[C@@H]4CCN(CCF)C4)cc3)ncc2OC)c1` [Compound I-14, (R)—N-(3-(2-(4-(1-(2-fluoroethyl)pyrrolidin-3-ylamino)phenylamino)-5-methoxypyrimidin-4-yloxy)phenyl)acrylamide], for which the pIC50 in experiment [1] was no more than 6.40; in experiment [2], 7.00 to 8.00; in experiment [3], 7.00 to 8.00.

For the compound `C=CC(=O)Nc1cccc(Nc2nc(Nc3ccc(OCCOC)cc3)nc3[nH]ccc23)c1` [Compound I-11, N-(3-(2-(4-(2-methoxyethoxy)phenylamino)-7H-pyrrolo[2,3-d]pyrimidin-4-ylamino)phenyl)acrylamide], the pIC50 is no more than 6.40 in experiment [1], 7.00 to 8.00 in experiment [2] and 7.00 to 8.00 in experiment [3].

Consider `C=CC(=O)Nc1cccc(Oc2nc(Nc3ccc(N4CCN(CCF)CC4)c(F)c3)ncc2F)c1` [Compound I-8], for which, in experiment [2], the pIC50 was greater than 8.00.

(Values after US9920074B2 (ACEA BIOSCIENCES INC., priority 2013, dated 2018).)
